IC50 data for 41 compounds are collected here from patent US12011444B2, “N-substituted indole derivatives as PGE2 receptor modulators” (Idorsia Pharmaceuticals Ltd, priority 2015, dated 2024).

One experiment deals with PTGER2 (EP2) (Homo sapiens (Human), UniProt P43116). Briefly: hEP2 b-arrestin assay (PathHunter HEK 293 PTGER2 b-arrestin cells). In kind it is cell-based. The settings on record: antagonistic activity on hEP2; mean where measured multiple times. The method in brief:
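Readout is β-galactosidase complementation luminescence, expressed as percent of DMSO control (duplicates). PathHunter HEK293 EP2/β-arrestin 2 cells, grown 24 h, received compound for 15 min at 37 °C before a 120 min challenge with PGE2 at 5 μM final, followed by 1 h detection at room temperature.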

Another experiment addresses PTRGER4 (EP4) (Homo sapiens (Human), UniProt P35408). The experiment is described as follows: hEP4 b-arrestin assay (PathHunter HEK 293 PTGER4 b-arrestin cells). In kind it is cell-based. As to conditions: antagonistic activity on hEP4; mean where measured multiple times. The method in brief: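 Antagonist mode: compound is given 15 min at 37 °C, then 20 nM (final) PGE2 for 120 min, in HEK293 cells stably expressing EP4 fused to ProLink and β-arrestin 2 fused to EA. Recruitment read as β-gal luminescence after 1 h reagent at room temperature, as percent of DMSO control.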

Chain of PTGER2 (EP2) (P43116 whole entry): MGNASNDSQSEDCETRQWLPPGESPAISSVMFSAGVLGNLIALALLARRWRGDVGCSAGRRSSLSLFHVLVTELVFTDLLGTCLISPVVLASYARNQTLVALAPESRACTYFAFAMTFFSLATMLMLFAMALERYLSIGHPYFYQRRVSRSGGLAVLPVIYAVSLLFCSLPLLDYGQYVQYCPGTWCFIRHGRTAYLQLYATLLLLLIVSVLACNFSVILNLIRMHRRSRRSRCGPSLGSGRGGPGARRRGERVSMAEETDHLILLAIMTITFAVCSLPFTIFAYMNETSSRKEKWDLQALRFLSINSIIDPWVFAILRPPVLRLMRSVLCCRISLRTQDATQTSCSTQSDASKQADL
Chain of PTRGER4 (EP4) (P35408 whole entry, looked up, the tested form may be a part): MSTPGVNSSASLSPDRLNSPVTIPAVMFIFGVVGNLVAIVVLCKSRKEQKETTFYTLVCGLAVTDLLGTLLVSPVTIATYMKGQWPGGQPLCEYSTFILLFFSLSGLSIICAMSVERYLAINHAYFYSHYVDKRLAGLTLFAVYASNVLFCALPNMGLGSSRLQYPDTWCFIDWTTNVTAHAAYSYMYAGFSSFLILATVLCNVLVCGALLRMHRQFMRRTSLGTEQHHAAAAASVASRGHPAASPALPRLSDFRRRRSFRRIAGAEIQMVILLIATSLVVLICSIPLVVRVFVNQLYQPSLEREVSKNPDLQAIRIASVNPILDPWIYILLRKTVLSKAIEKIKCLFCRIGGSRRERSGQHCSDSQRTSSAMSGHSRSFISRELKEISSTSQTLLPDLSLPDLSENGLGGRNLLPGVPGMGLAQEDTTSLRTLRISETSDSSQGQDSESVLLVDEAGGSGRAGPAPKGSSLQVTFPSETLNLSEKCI

Regarding `Cc1cc(F)cc2c1cc(C)n2CCNc1cc(-c2cc(C(F)(F)F)c(C(=O)O)s2)ncn1` [compound 269], the values for the IC50 at PTGER2 (EP2) and on PTRGER4 (EP4) were 61 nM and 117 nM, respectively.

`CSc1cc(-c2cc(NCCn3c(C)cc4c(C)c(F)cc(Cl)c43)ncn2)ccc1C(=O)O` [compound 270]: the values for the IC50 against PTGER2 (EP2) and at PTRGER4 (EP4) were 46 nM and 513 nM, respectively.

In the case of `CCCc1cc(-c2cc(NCCn3c(C)cc4c(OC)cccc43)ncn2)ccc1C(=O)O` [compound 271], the IC50 against PTGER2 (EP2) was found to be 5 nM; on PTRGER4 (EP4), 153 nM.

Consider `CCOc1cc(-c2cc(NCCn3c(C)cc4cc(F)c(Cl)c(Cl)c43)ncn2)sc1C(=O)O` [compound 272], for which the IC50 at PTGER2 (EP2) amounted to 8 nM; at PTRGER4 (EP4), 716 nM.

On to `CCOc1cc(-c2cc(NCCn3c(C)cc4cc(F)c(F)c(F)c43)ncn2)sc1C(=O)O` [compound 273], for which the IC50 against PTGER2 (EP2) amounted to 1 nM; on PTRGER4 (EP4) it was 67 nM.

Turning to `CCOc1cc(-c2cc(NCCn3c(C)cc4c(F)cc(F)c(F)c43)ncn2)sc1C(=O)O` [compound 274], the IC50 came to 1 nM at PTGER2 (EP2) and 43 nM against PTRGER4 (EP4).

Turning to `CCOc1cc(-c2cc(NCCn3c(C)cc4c(F)c(F)cc(F)c43)ncn2)sc1C(=O)O` [compound 275], the figures for the IC50 at PTGER2 (EP2) and at PTRGER4 (EP4) were 1 nM and 25 nM, respectively.

Turning to `COc1ccc(Cl)c2c1cc(C)n2CCNc1cc(-c2cc(C)c(C(=O)O)c(F)c2)ncn1` [compound 276], the IC50 against PTGER2 (EP2) amounted to 65 nM; on PTRGER4 (EP4), 885 nM.

Regarding `COc1ccc(F)c2c1cc(C)n2CCNc1cc(-c2cc(C)c(C(=O)O)c(F)c2)ncn1` [compound 277], the IC50 against PTGER2 (EP2) amounted to 17 nM; against PTRGER4 (EP4) it was 416 nM.

As to `CCOc1cc(-c2cc(NCCn3c(C)cc4c(F)c(F)ccc43)ncn2)ccc1C(=O)O` [compound 278], the figures for the IC50 on PTGER2 (EP2) and against PTRGER4 (EP4) were 9 nM and 999 nM, respectively.

As to `CCOc1cc(-c2cc(NCCn3c(C)cc4c(Cl)cc(Cl)cc43)ncn2)ccc1C(=O)O` [compound 279], the IC50 was 22 nM at PTGER2 (EP2) and 313 nM against PTRGER4 (EP4).

In the case of `CCOc1cc(-c2cc(NCCn3c(C)cc4c(Cl)cc(F)cc43)ncn2)ccc1C(=O)O` [compound 280], the IC50 against PTGER2 (EP2) turned out to be 16 nM; on PTRGER4 (EP4), 652 nM.

`CCOc1cc(-c2cc(NCCn3c(C)cc4c(Cl)ccc(F)c43)ncn2)ccc1C(=O)O` [compound 281]: the values for the IC50 against PTGER2 (EP2) and at PTRGER4 (EP4) were 27 nM and 435 nM, respectively.

In the case of `CCOc1cc(-c2cc(NCCn3c(C)cc4c(C)cc(F)cc43)ncn2)ccc1C(=O)O` [compound 282], the IC50 against PTGER2 (EP2) came to 11 nM; against PTRGER4 (EP4), 294 nM.

Turning to `CCc1cc(-c2cc(NCCn3c(C)cc4c(OC)cc(F)cc43)ncn2)ccc1C(=O)O` [compound 283], the figures for the IC50 against PTGER2 (EP2) and against PTRGER4 (EP4) were 17 nM and 132 nM, respectively.

On to `CCOc1cc(-c2cc(NCCn3c(C)cc4cc(C)cc(Cl)c43)ncn2)ccc1C(=O)O` [compound 284], for which the half-maximal inhibitory concentration (IC50) against PTGER2 (EP2) came out at 34 nM; on PTRGER4 (EP4), 824 nM.

As for `CCOc1cc(-c2cc(NCCn3c(C)cc4cc(C)cc(F)c43)ncn2)ccc1C(=O)O` [compound 285], the IC50 against PTGER2 (EP2) came to 47 nM; on PTRGER4 (EP4), 691 nM.

With `COc1cc(-c2cc(NCCn3c(C)cc4c(C)ccc(F)c43)ncn2)cc(C)c1C(=O)O` [compound 286], the values for the IC50 on PTGER2 (EP2) and against PTRGER4 (EP4) were 31 nM and 268 nM, respectively.

In the case of `COc1ccc(Cl)c2c1cc(C)n2CCNc1cc(-c2cc(C)c(C(=O)O)c(C)c2)ncn1` [compound 287], the results for the IC50 on PTGER2 (EP2) and at PTRGER4 (EP4) were 183 nM and 963 nM, respectively.

With `CCc1cc(-c2cc(NCCn3c(C)cc4c(OC)ccc(Cl)c43)ncn2)ccc1C(=O)O` [compound 288], the results for the IC50 on PTGER2 (EP2) and at PTRGER4 (EP4) were 19 nM and 714 nM, respectively.

With `COc1ccc(F)c2c1cc(C)n2CCNc1cc(-c2cc(C)c(C(=O)O)c(C)c2)ncn1` [compound 289], the results for the IC50 at PTGER2 (EP2) and at PTRGER4 (EP4) were 53 nM and 299 nM, respectively.

Regarding `CCc1cc(-c2cc(NCCn3c(C)cc4c(OC)ccc(F)c43)ncn2)ccc1C(=O)O` [compound 290], the IC50 on PTGER2 (EP2) is 28 nM; against PTRGER4 (EP4) it was 102 nM.

In the case of `COc1cc(F)cc2c1cc(C)n2CCNc1cc(-c2cc(Cl)c(C(=O)O)c(Cl)c2)ncn1` [compound 291], the IC50 was found to be 41 nM on PTGER2 (EP2) and 104 nM at PTRGER4 (EP4).

Take `COc1ccc(Cl)c2c1cc(C)n2CCNc1cc(-c2cc(Cl)c(C(=O)O)c(Cl)c2)ncn1` [compound 292]: the half-inhibitory concentration (IC50) came out at 52 nM against PTGER2 (EP2) and 397 nM against PTRGER4 (EP4).

For `COc1ccc(F)c2c1cc(C)n2CCNc1cc(-c2cc(Cl)c(C(=O)O)c(Cl)c2)ncn1` [compound 293], the IC50 on PTGER2 (EP2) turned out to be 19 nM; at PTRGER4 (EP4), 113 nM.

With `CCOc1cc(-c2cc(NCCn3c(C)cc4c(C)cc(F)c(F)c43)ncn2)sc1C(=O)O` [compound 294], the results for the IC50 against PTGER2 (EP2) and at PTRGER4 (EP4) were 8 nM and 10 nM, respectively.

For the compound `CCc1cc(-c2cc(NCCn3c(C)cc4c5c(cc(Cl)c43)OCO5)ncn2)ccc1C(=O)O` [compound 295, 4-{6-[2-(5-Chloro-7-methyl-[1,3]dioxolo[4,5-e]indol-6-yl)-ethylamino]-pyrimidin-4-yl}-2-ethyl-benzoic acid], the results for the IC50 on PTGER2 (EP2) and at PTRGER4 (EP4) were 12 nM and 950 nM, respectively.

Consider `COc1ccc(F)c2c1cc(C)n2CCNc1cc(-c2ccc(C(=O)O)c(C3CC3)c2)ncn1` [compound 296, 2-Cyclopropyl-4-{6-[2-(7-fluoro-4-methoxy-2-methyl-indol-1-yl)-ethylamino]-pyrimidin-4-yl}-benzoic acid], for which the results for the IC50 on PTGER2 (EP2) and against PTRGER4 (EP4) were 7 nM and 259 nM, respectively.

With `Cc1cc(F)cc2c1cc(C)n2CCNc1cc(-c2ccc3[nH]c(C(F)(F)F)nc3c2)ncn1` [compound 297], the figures for the IC50 against PTGER2 (EP2) and at PTRGER4 (EP4) were 539 nM and 814 nM, respectively.

On to `Cc1sc(N)nc1-c1ccc(-c2cc(NCCn3c(C)cc4c(C)ccc(F)c43)ncn2)cc1` [compound 298, {6-[4-(2-Amino-5-methyl-thiazol-4-yl)-phenyl]-pyrimidin-4-yl}-[2-(7-fluoro-2,4-dimethyl-indol-1-yl)-ethyl]-amine], for which the IC50 was found to be 19 nM against PTGER2 (EP2) and 249 nM at PTRGER4 (EP4).

On to `COc1cc(F)c(F)c2c1cc(C)n2CCNc1cc(-c2ccc(-c3ncno3)cc2)ncn1` [compound 299, [2-(6,7-Difluoro-4-methoxy-2-methyl-indol-1-yl)-ethyl]-[6-(4-[1,2,4]oxadiazol-5-yl-phenyl)-pyrimidin-4-yl]-amine], for which the IC50 at PTGER2 (EP2) was 10 nM; on PTRGER4 (EP4) it was 81 nM.

Turning to `COc1cccc2c1cc(C)n2CCNc1cc(-c2ccc(-c3nnc(C)o3)c(F)c2)ncn1` [compound 300, {6-[3-Fluoro-4-(5-methyl-[1,3,4]oxadiazol-2-yl)-phenyl]-pyrimidin-4-yl}-[2-(4-methoxy-2-methyl-indol-1-yl)-ethyl]-amine], the IC50 against PTGER2 (EP2) was determined as 40 nM; on PTRGER4 (EP4), 494 nM.

As for `COc1cc(F)cc2c1cc(C)n2CCNc1cc(-c2ccc(-c3nc(C)no3)cc2)ncn1` [compound 301], the IC50 against PTGER2 (EP2) came to 103 nM; at PTRGER4 (EP4), 358 nM.

Regarding `COc1ccc(F)c2c1cc(C)n2CCNc1cc(-c2ccc(-c3nc(C)no3)cc2)ncn1` [compound 302, [2-(7-Fluoro-4-methoxy-2-methyl-indol-1-yl)-ethyl]-{6-[4-(3-methyl-[1,2,4]oxadiazol-5-yl)-phenyl]-pyrimidin-4-yl}-amine], the figures for the IC50 on PTGER2 (EP2) and against PTRGER4 (EP4) were 33 nM and 145 nM, respectively.

With `COc1ccc(F)c2c1cc(C)n2CCNc1cc(-c2ccc(-c3noc(C)n3)cc2)ncn1` [compound 303, [2-(7-Fluoro-4-methoxy-2-methyl-indol-1-yl)-ethyl]-{6-[4-(5-methyl-[1,2,4]oxadiazol-3-yl)-phenyl]-pyrimidin-4-yl}-amine], the IC50 came to 33 nM on PTGER2 (EP2) and 322 nM at PTRGER4 (EP4).

`COc1ccc(F)c2c1cc(C)n2CCNc1cc(-c2ccc(-c3cc(N)no3)cc2)ncn1` [compound 304, {6-[4-(3-Amino-isoxazol-5-yl)-phenyl]-pyrimidin-4-yl}-[2-(7-fluoro-4-methoxy-2-methyl-indol-1-yl)-ethyl]-amine]: the IC50 on PTGER2 (EP2) was 2 nM; against PTRGER4 (EP4) it was 12 nM.

`Cc1nnc(-c2ccc(-c3cc(NCCn4c(C)cc5c(C)ccc(F)c54)ncn3)cc2F)o1` [compound 306]: the IC50 at PTGER2 (EP2) amounted to 408 nM; on PTRGER4 (EP4), 207 nM.

Turning to `COc1cc(F)c(F)c2c1cc(C)n2CCNc1cc(-c2ccc(-c3c[nH]cn3)cc2)ncn1` [compound 307, [2-(6,7-Difluoro-4-methoxy-2-methyl-indol-1-yl)-ethyl]-{6-[4-(1H-imidazol-4-yl)-phenyl]-pyrimidin-4-yl}-amine], the values for the IC50 on PTGER2 (EP2) and against PTRGER4 (EP4) were 25 nM and 47 nM, respectively.

As to `COc1cccc2c1cc(C)n2CCNc1cc(-c2ccc(Cn3cccn3)c(F)c2)ncn1` [compound 308], the values for the IC50 on PTGER2 (EP2) and on PTRGER4 (EP4) were 383 nM and 429 nM, respectively.

Take `COc1cc(F)cc2c1cc(C)n2CCNc1cc(-c2ccc(-c3ccn(C)n3)cc2)ncn1` [compound 309, [2-(6-Fluoro-4-methoxy-2-methyl-indol-1-yl)-ethyl]-{6-[4-(1-methyl-1H-pyrazol-3-yl)-phenyl]-pyrimidin-4-yl}-amine]: the half-inhibitory concentration (IC50) against PTGER2 (EP2) was determined as 11 nM; at PTRGER4 (EP4), 86 nM.

As to `COc1ccc(F)c2c1cc(C)n2CCNc1cc(-c2ccc(-n3ccc(C)n3)cc2)ncn1` [compound 310, [2-(7-Fluoro-4-methoxy-2-methyl-indol-1-yl)-ethyl]-{6-[4-(3-methyl-pyrazol-1-yl)-phenyl]-pyrimidin-4-yl}-amine], the IC50 on PTGER2 (EP2) amounted to 39 nM; on PTRGER4 (EP4), 415 nM.

The IC50 is the concentration that inhibits the measured activity by half. A lower IC50 goes with inhibition by little substance.
